In ChEMBL document CHEMBL1201862, “PubChem BioAssay data set” (2004):
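In this assay, cells in 96-well plates receive the compound at five concentrations for 48 hours. Endpoints are linearly interpolated between the surrounding concentrations. At the GI50, growth is halved.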 Activity calls are given as the source filed them. No stated cut-off is given here; in the data, active = GI50 up to about 1.1 µM and inactive = higher.

Legend:
Experiment in all cases: DTP human tumour cell line panel, 48 h
EKVX = system: EKVX
UACC-62 = system: UACC-62
786-0 = system: 786-0
Hs-578T = system: Hs-578T
RXF 393 = system: RXF 393
HCC 2998 = system: HCC 2998
UACC-257 = system: UACC-257
NCI-H226 = system: NCI-H226
HL-60 = system: HL-60
DU-145 = system: DU-145
BT-549 = system: BT-549
M14 = system: M14
MDA-MB-435 = system: MDA-MB-435
HT-29 = system: HT-29
OVCAR-8 = system: OVCAR-8
PC-3 = system: PC-3
SK-MEL-2 = system: SK-MEL-2
Malme-3M = system: Malme-3M
CAKI-1 = system: CAKI-1
LOX IMVI = system: LOX IMVI

Compound	GI50 (EKVX)	GI50 (UACC-62)	GI50 (786-0)	GI50 (Hs-578T)	GI50 (RXF 393)	GI50 (HCC 2998)	GI50 (UACC-257)	GI50 (NCI-H226)	GI50 (HL-60)	GI50 (DU-145)	GI50 (BT-549)	GI50 (M14)	GI50 (MDA-MB-435)	GI50 (HT-29)	GI50 (OVCAR-8)	GI50 (PC-3)	GI50 (SK-MEL-2)	GI50 (Malme-3M)	GI50 (CAKI-1)	GI50 (LOX IMVI)
CCN1CSC(=S)N(CC)C1	> 100 µM (inactive)	38.8 µM (inactive)	28.6 µM (inactive)	> 100 µM (inactive)	> 100 µM (inactive)	> 100 µM (inactive)	> 100 µM (inactive)	> 100 µM (inactive)	15 µM (inactive)	> 100 µM (inactive)	> 100 µM (inactive)	50.6 µM (inactive)	46.8 µM (inactive)	41.1 µM (inactive)	98.4 µM (inactive)	> 100 µM (inactive)	> 100 µM (inactive)	52.7 µM (inactive)	–	–
O=[N+]([O-])c1ccc2c(c1)Sc1ccccc1N2	11.4 µM (inactive)	–	64.3 µM (inactive)	17.2 µM (inactive)	37.8 µM (inactive)	> 100 µM (inactive)	> 100 µM (inactive)	> 100 µM (inactive)	5.11 µM (inactive)	74.6 µM (inactive)	> 100 µM (inactive)	–	3.72 µM (inactive)	> 100 µM (inactive)	> 100 µM (inactive)	31.9 µM (inactive)	–	> 100 µM (inactive)	> 100 µM (inactive)	41.3 µM (inactive)
O=c1c2cc(I)ccc2nc(Sc2ncccc2[N+](=O)[O-])n1Cc1ccccc1	17.7 µM (inactive)	21.2 µM (inactive)	23.2 µM (inactive)	16.7 µM (inactive)	13.4 µM (inactive)	26.7 µM (inactive)	23.2 µM (inactive)	22.3 µM (inactive)	0.122 µM (active)	22.5 µM (inactive)	11.6 µM (inactive)	28.3 µM (inactive)	23.7 µM (inactive)	34.2 µM (inactive)	31 µM (inactive)	26.5 µM (inactive)	7.38 µM (inactive)	–	25.8 µM (inactive)	34.3 µM (inactive)
COc1ccccc1NS(=O)(=O)c1ccc2ncn(NS(=O)(=O)c3ccc(Cl)cc3)c(=O)c2c1	> 100 µM (inactive)	39.1 µM (inactive)	> 100 µM (inactive)	77.3 µM (inactive)	–	> 100 µM (inactive)	> 100 µM (inactive)	> 100 µM (inactive)	85.7 µM (inactive)	> 100 µM (inactive)	> 100 µM (inactive)	5.86 µM (inactive)	> 100 µM (inactive)	> 100 µM (inactive)	> 100 µM (inactive)	5.51 µM (inactive)	45.2 µM (inactive)	> 100 µM (inactive)	> 100 µM (inactive)	> 100 µM (inactive)
COc1cc(/C=C2/Oc3c(OC)cccc3C2=O)ccc1O	46.9 µM (inactive)	> 100 µM (inactive)	76.4 µM (inactive)	> 100 µM (inactive)	90.2 µM (inactive)	48.4 µM (inactive)	> 100 µM (inactive)	76 µM (inactive)	36.6 µM (inactive)	49.1 µM (inactive)	> 100 µM (inactive)	30.8 µM (inactive)	52.5 µM (inactive)	52.4 µM (inactive)	> 100 µM (inactive)	43.9 µM (inactive)	> 100 µM (inactive)	–	36.5 µM (inactive)	84.5 µM (inactive)
C[C@@H]1C[C@H]2OC(=O)[C@@]3(C)CCC[C@@](C)([C@@H]23)[C@@]1(O)CCc1ccoc1	> 100 µM (inactive)	> 62.4 µM (inactive)	> 100 µM (inactive)	> 100 µM (inactive)	> 100 µM (inactive)	> 100 µM (inactive)	> 95.7 µM (inactive)	> 61.2 µM (inactive)	29.6 µM (inactive)	> 100 µM (inactive)	> 49.8 µM (inactive)	> 100 µM (inactive)	> 100 µM (inactive)	> 95.7 µM (inactive)	> 100 µM (inactive)	> 100 µM (inactive)	> 100 µM (inactive)	–	> 100 µM (inactive)	> 100 µM (inactive)
O=C(Nn1cnn2c(=O)c3ccccc3nc2c1=O)c1ccccc1	> 100 µM (inactive)	> 100 µM (inactive)	> 100 µM (inactive)	> 100 µM (inactive)	–	> 100 µM (inactive)	> 100 µM (inactive)	> 100 µM (inactive)	> 100 µM (inactive)	> 100 µM (inactive)	> 100 µM (inactive)	> 100 µM (inactive)	> 100 µM (inactive)	> 100 µM (inactive)	> 100 µM (inactive)	> 100 µM (inactive)	> 100 µM (inactive)	> 100 µM (inactive)	> 100 µM (inactive)	> 100 µM (inactive)
COc1ccc(S(=O)(=O)NC(CCC(=O)NC(N)=O)C(=O)NC(N)=O)cc1 (stereo not given)	> 100 µM (inactive)	> 100 µM (inactive)	> 100 µM (inactive)	> 100 µM (inactive)	–	> 100 µM (inactive)	> 100 µM (inactive)	> 100 µM (inactive)	74.5 µM (inactive)	> 100 µM (inactive)	> 100 µM (inactive)	> 100 µM (inactive)	> 100 µM (inactive)	> 100 µM (inactive)	> 100 µM (inactive)	> 100 µM (inactive)	> 100 µM (inactive)	> 100 µM (inactive)	> 100 µM (inactive)	> 100 µM (inactive)
COC(=O)/C=c1/c2ccccc2n2nc3ccccc3c12	> 100 µM (inactive)	70.8 µM (inactive)	27.6 µM (inactive)	52 µM (inactive)	34 µM (inactive)	62.5 µM (inactive)	80.9 µM (inactive)	–	45 µM (inactive)	> 100 µM (inactive)	> 100 µM (inactive)	> 100 µM (inactive)	33 µM (inactive)	38.9 µM (inactive)	> 100 µM (inactive)	> 100 µM (inactive)	74.6 µM (inactive)	99.1 µM (inactive)	63 µM (inactive)	36.9 µM (inactive)
Oc1ccc(/C=C/c2ccc3cccc(O)c3n2)cc1O	6.11 µM (inactive)	4.79 µM (inactive)	3.24 µM (inactive)	36.1 µM (inactive)	3.24 µM (inactive)	10.8 µM (inactive)	10.5 µM (inactive)	–	1.96 µM (inactive)	2.79 µM (inactive)	1.61 µM (inactive)	2.69 µM (inactive)	5.9 µM (inactive)	14.7 µM (inactive)	5.86 µM (inactive)	15.6 µM (inactive)	11.9 µM (inactive)	–	4.98 µM (inactive)	4.48 µM (inactive)
Cc1ccc(-c2cc(C(F)(F)F)nn2-c2ccc(S(N)(=O)=O)cc2)cc1 [CELECOXIB]	17.9 µM (inactive)	15.4 µM (inactive)	37.1 µM (inactive)	18.5 µM (inactive)	17.1 µM (inactive)	15.7 µM (inactive)	19.7 µM (inactive)	–	14.8 µM (inactive)	16.3 µM (inactive)	18.5 µM (inactive)	67.9 µM (inactive)	17.5 µM (inactive)	16.5 µM (inactive)	19.7 µM (inactive)	13.4 µM (inactive)	16.1 µM (inactive)	18.6 µM (inactive)	19.6 µM (inactive)	18.2 µM (inactive)
